Experimental data published in patent US20230114241A1, “METHODS OF TREATING EPILEPSY USING THE SAME” (Trevena, Inc., priority 2019, published 2023).

Tests used:
[1] = biological target: T1, human sphingosine-1-phosphate receptor 1 (S1P1) (Homo sapiens, UniProt P21453); assay: β-Arrestin2 recruitment assay (PathHunter), S1P1 CHO-K1 cells; type: cell-based; settings: for Emax: efficacy normalized to maximum efficacy of fingolimod, read-out: hS1P1 B-arrestin2 SPAN; for EC50: β-arrestin2 recruitment, read-out: hS1P1 B-arrestin2 pEC50 (converted)
Method in brief: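 Agonist-driven β-arrestin2 recruitment measured by β-galactosidase complementation after 60 min compound exposure at 37 °C and 1 h detection at room temperature. Cells: stable CHO-K1 line expressing tagged human S1P1 with EA-β-arrestin2, plated the night before. Data expressed relative to fingolimod.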
Target sequence in this assay (P21453 whole entry): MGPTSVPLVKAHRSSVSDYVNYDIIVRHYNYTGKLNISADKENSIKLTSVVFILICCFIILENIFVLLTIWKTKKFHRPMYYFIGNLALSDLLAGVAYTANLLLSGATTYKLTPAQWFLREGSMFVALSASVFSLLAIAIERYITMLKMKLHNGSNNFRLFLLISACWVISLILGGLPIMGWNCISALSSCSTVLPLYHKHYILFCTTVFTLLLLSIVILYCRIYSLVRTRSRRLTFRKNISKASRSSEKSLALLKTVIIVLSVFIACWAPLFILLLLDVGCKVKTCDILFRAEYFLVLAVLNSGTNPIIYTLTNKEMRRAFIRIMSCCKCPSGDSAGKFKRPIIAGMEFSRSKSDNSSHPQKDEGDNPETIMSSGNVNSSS
Target sequence in this assay (P32121 whole entry partner): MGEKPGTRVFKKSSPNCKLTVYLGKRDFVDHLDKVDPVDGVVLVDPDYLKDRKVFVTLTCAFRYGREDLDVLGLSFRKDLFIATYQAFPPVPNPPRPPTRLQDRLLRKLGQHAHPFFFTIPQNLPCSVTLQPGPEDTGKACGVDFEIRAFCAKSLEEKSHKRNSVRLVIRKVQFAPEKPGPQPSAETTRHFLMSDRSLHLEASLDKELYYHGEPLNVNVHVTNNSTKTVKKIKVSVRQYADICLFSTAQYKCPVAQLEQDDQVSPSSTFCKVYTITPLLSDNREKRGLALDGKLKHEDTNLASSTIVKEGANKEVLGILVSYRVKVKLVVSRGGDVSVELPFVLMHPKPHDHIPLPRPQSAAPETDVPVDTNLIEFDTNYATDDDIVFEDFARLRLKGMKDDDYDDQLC

[2] = biological target: T1, human sphingosine-1-phosphate receptor 1 (S1P1); assay: Inhibition of cAMP production (HTRF cAMP HiRange), S1P1 CHO-K1 cells; type: cell-based; settings: for Emax: CHO-K1, efficacy normalized to maximum efficacy of fingolimod, read-out: hS1P1 CAMP SPAN; for EC50: read-out: hS1P1 CAMP pEC50 (converted)
Method in brief: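 Intracellular cAMP changes read by TR-FRET (HTRF HiRange, 1 h room temperature) after 30 min compound exposure at 37 °C. Cells: overnight-plated CHO-K1 stably expressing tagged human S1P1 with EA-β-arrestin2. Responses normalized to fingolimod.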
Target sequence in this assay (P21453 whole entry): as the sequence (P21453 whole entry) above

[3] = inhibition of cAMP production, S1P1
[4] = CHO-K1, β-arrestin2 recruitment
[5] = inhibition of cAMP production, potency

Row | Compound | Emax ([1]; CHO-K1) [%] | EC50 ([1]; S1P1) [µM] | Emax [2] [%] | EC50 [2, 3] [µM] | Emax [1, 4] [%] | EC50 ([1]; potency) [µM] | Emax ([2]; inhibition of cAMP production) [%] | EC50 [2, 5] [µM]
1 | COc1cccc(-c2csc(-c3ccc4c(ccn4C(C)C)c3)n2)c1 [Compound 405, 2-(1-isopropylindol-5-yl)-4-(3-methoxy-phenyl)thiazole] | < 75 | > 10 | < 75 | > 0.316 | – | – | – | –
2 | CC(C)(O)Cn1nnc2cc(-c3nc(-c4ccc5nonc5c4)no3)ccc21 [Compound 590, 1-{5-[3-(2,1,3-benzoxa-diazol-5-yl)-1,2,4-oxadiazol-5-yl]-1H-1,2,3-benzotriazol-1-yl}-2-methylpropan-2-ol] | < 75 | > 10 | < 75 | > 0.316 | – | – | – | –
3 | CC(C)n1nnc2cc(-c3nc(-c4ccc(Oc5ccccc5)cc4)no3)ccc21 [Compound 15, 5-[3-(4-phenoxyphenyl)-1,2,4-oxadiazol-5-yl]-1-(propan-2-yl)-1H-1,2,3-benzotriazole] | – | – | – | – | < 75 | > 10 | > 75 | > 0.316
4 | OCCCn1nnc2cc(-c3noc(-c4ccccc4Br)n3)ccc21 [Compound 24, 3-(5-(5-(2-bromophenyl)-1,2,4-oxadiazol-3-yl)-1H-benzo[d][1,2,3]triazol-1-yl)propan-1-ol] | – | – | – | – | < 75 | > 10 | > 75 | > 0.316
5 | CC(C)n1ccc2cc(-c3noc(-c4cccc(F)c4)n3)ccc21 [Compound 394, 5-(3-fluorophenyl)-3-(1-isopropyl-1H-indol-5-yl)-1,2,4-oxadiazole] | < 75 | < 10 | < 75 | > 0.316 | – | – | – | –
6 | CC1(C)Oc2ccc(-c3nc(-c4cccnc4)no3)cc2C1=O [Compound 481, 2,2-dimethyl-5-[3-(pyridin-3-yl)-1,2,4-oxadiazol-5-yl]-2,3-dihydro-1-benzofuran-3-one] | < 75 | < 10 | > 75 | > 0.316 | – | – | – | –
7 | CC(C)n1ccc2cc(-c3noc(-c4ccccc4Br)n3)ccc21 [Compound 388, 5-(2-bromophenyl)-3-(1-isopropyl-1H-indol-5-yl)-1,2,4-oxadiazole] | > 75 | < 10 | > 75 | < 0.316 | – | – | – | –
8 | Cc1ccc(-c2nc(-c3ccc4c(c3)nnn4C(C)C)no2)c(C)c1 [Compound 166, 5-(2,4-dimethylphenyl)-3-(1-isopropyl-1H-benzo[d][1,2,3]triazol-5-yl)-1,2,4-oxadiazole] | – | – | – | – | > 75 | > 10 | < 75 | > 0.316
9 | O=C1CC(CO)(CO)Oc2ccc(-c3nc(-c4ccncc4)no3)cc21 [Compound 482, 2,2-bis(hydroxymethyl)-6-[3-(pyridin-4-yl)-1,2,4-oxadiazol-5-yl]-3,4-dihydro-2H-1-benzopyran-4-one] | > 75 | > 10 | < 75 | > 0.316 | – | – | – | –
10 | N#Cc1cc(-c2nnc(-c3ccc4c(c3)CCC(=O)N4)o2)ccc1NCCF [Compound 476, 2-[(2-fluoroethyl)amino]-5-[5-(2-oxo-1,2,3,4-tetrahydroquinolin-6-yl)-1,3,4-oxadiazol-2-yl]benzonitrile] | < 75 | < 10 | > 75 | < 0.316 | – | – | – | –
11 | CC(C)n1nnc2cc(-c3nc(-c4ccc(-c5ccccc5)cn4)no3)ccc21 [Compound 9, 5-[3-(5-phenylpyridin-2-yl)-1,2,4-oxadiazol-5-yl]-1-(propan-2-yl)-1H-1,2,3-benzotriazole] | – | – | – | – | < 75 | > 10 | < 75 | > 0.316
12 | C=CCNc1ccc(-c2nc(-c3ccc4[nH]nnc4c3)no2)cc1C#N [Compound 145, 5-(3-(1H-benzo[d] [1,2,3]triazol-5-yl)-1,2,4-oxadiazol-5-yl)-2-(allylamino)benzonitrile] | – | – | – | – | < 75 | < 10 | > 75 | < 0.316
13 | COc1ccccc1-c1cnc(-c2ccc3c(c2)nnn3C(C)C)nc1 [Compound 565, 1-isopropyl-5-(5-(2-methoxyphenyl)pyrimidin-2-yl)-1H-benzo[d][1,2,3]triazole] | > 75 | < 10 | > 75 | < 0.316 | – | – | – | –
14 | CCC1(CC)CC(=O)c2cc(-c3nc(-c4cccnc4O)no3)ccc2O1 [Compound 258, 2,2-diethyl-6-(3-(2-hydroxypyridin-3-yl)-1,2,4-oxadiazol-5-yl)chroman-4-one] | – | – | – | – | < 75 | > 10 | < 75 | > 0.316
15 | CCC1(CC)CC(=O)c2cc(-c3ncc(-c4ccncc4)cn3)ccc2O1 [Compound 510, 2,2-diethyl-6-(5-(pyridin-4-yl)pyrimidin-2-yl)chroman-4-one] | > 75 | < 10 | < 75 | < 0.316 | – | – | – | –
16 | CCCC1(CCC)CC(=O)c2cc(-c3nc(-c4cccnc4)no3)ccc2O1 [Compound 218, 2,2-dipropyl-6-[3-(pyridin-3-yl)-1,2,4-oxadiazol-5-yl]-3,4-dihydro-2H-1-benzopyran-4-one] | – | – | – | – | > 75 | > 10 | > 75 | > 0.316
17 | COc1cccc(-c2noc(-c3ccc4c(c3)nnn4C(C)C)n2)c1 [Compound 228, 5-(1-isopropyl-1H-benzo[d][1,2,3]triazol-5-yl)-3-(3-methoxy-phenyl)-1,2,4-oxadiazole] | – | – | – | – | < 75 | > 10 | < 75 | > 0.316
18 | COc1ccccc1-c1noc(-c2ccc3c(ccn3C(C)C)c2)n1 [Compound 372, 5-(1-isopropyl-1H-indol-5-yl)-3-(2-methoxy-phenyl)-1,2,4-oxadiazole] | > 75 | < 10 | > 75 | < 0.316 | – | – | – | –
19 | C=CCNc1ccc(-c2nc(-c3ccc4[nH]c(=O)oc4c3)no2)cc1C#N [Compound 189, 2-(allylamino)-5-(3-(2-oxo-2,3-dihydro-benzo[d]oxazol-6-yl)-1,2,4-oxadiazol-5-yl)benzonitrile] | – | – | – | – | > 75 | < 10 | > 75 | < 0.316
20 | CCC1(CC)CC(=O)c2cc(-c3nc(-c4ccncn4)no3)ccc2O1 [Compound 639, 2,2-diethyl-6-(3-(pyrimidin-4-yl)-1,2,4-oxadiazol-5-yl)chroman-4-one] | > 75 | > 10 | < 75 | > 0.316 | – | – | – | –
21 | CCC1(CC)CC(=O)c2cc(-c3ncc(-c4cccnc4)cn3)ccc2O1 [Compound 509, 2,2-diethyl-6-(5-(pyridin-3-yl)pyrimidin-2-yl)chroman-4-one] | > 75 | > 10 | < 75 | > 0.316 | – | – | – | –
22 | CCC1(CC)CC(=O)c2cc(-c3nc(-c4cncc(S(N)(=O)=O)c4)no3)ccc2O1 [Compound 603, 5-(5-(2,2-diethyl-4-oxochroman-6-yl)-1,2,4-oxadiazol-3-yl)pyridine-3-sulfonamide] | > 75 | < 10 | > 75 | < 0.316 | – | – | – | –
23 | Fc1cc(-c2noc(-c3ccc4c(c3)nnn4C3CCCC3)n2)ccc1C(F)(F)F [Compound 1, 1-cyclopentyl-5-{3-[3-fluoro-4-(trifluoro-methyl)phenyl]-1,2,4-oxadiazol-5-yl}-1H-1,2,3-benzotriazole] | – | – | – | – | < 75 | > 10 | < 75 | > 0.316
24 | CC(C)n1nnc2cc(-c3nc(-c4sccc4Cl)co3)ccc21 [Compound 463, 5-[4-(3-chlorothiophen-2-yl)-1,3-oxazol-2-yl]-1-(propan-2-yl)-1H-1,2,3-benzotriazole] | > 75 | < 10 | > 75 | < 0.316 | – | – | – | –
25 | CCC1(CC)CC(=O)c2cc(-c3nc(-c4cncc(C(F)(F)F)c4)no3)ccc2O1 [Compound 557, 2,2-diethyl-6-(3-(5-(trifluoromethyl)pyridin-3-yl)-1,2,4-oxadiazol-5-yl)chroman-4-one] | < 75 | < 10 | > 75 | > 0.316 | – | – | – | –
26 | COc1cccc(-c2nc(-c3ccc4c(ccn4C(C)C)c3)ns2)c1 [Compound 366, 5-[5-(3-methoxyphenyl)-1,2,4-thiadiazol-3-yl]-1-(propan-2-yl)-1H-indole] | – | – | – | – | < 75 | > 10 | < 75 | > 0.316
27 | CCC1(CC)CC(=O)c2cc(-c3nc(-c4ccnc(C(N)=O)c4)no3)ccc2O1 [Compound 555, 4-(5-(2,2-diethyl-4-oxochroman-6-yl)-1,2,4-oxadiazol-3-yl)picolinamide] | < 75 | < 10 | < 75 | < 0.316 | – | – | – | –
28 | CC(C)n1ccc2cc(-c3nsc(-c4ccccc4F)n3)ccc21 [Compound 380, 5-[5-(2-fluorophenyl)-1,2,4-thiadiazol-3-yl]-1-(propan-2-yl)-1H-indole] | < 75 | > 10 | < 75 | > 0.316 | – | – | – | –
29 | CCC1(CC)CC(=O)c2cc(-c3nc(-c4cnccc4C(F)(F)F)no3)ccc2O1 [Compound 558, 2,2-diethyl-6-(3-(4-(trifluoromethyl)pyridin-3-yl)-1,2,4-oxadiazol-5-yl)chroman-4-one] | > 75 | < 10 | > 75 | < 0.316 | – | – | – | –
